Measurements from PubChem BioAssay AID1963866 (Molecular Pharmacology Branch, DTP, NCI, 2024).

System: PDC KRAS tumor spheroids with HUVEC/MSC, viability
Assay: Anticancer human tumor 349418-098-R-PDC patient-derived lung adenocarcinoma cell line growth inhibition [KRAS2]
Conditions: for IC50: curve of first compound; for viability, T/C: stronger effect = lower value
Method in brief: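 Combination screen of spheroid viability in tumor-cell co-cultures with endothelial (HUVEC) and mesenchymal stem cell stroma. Each agent was tested in half-log dilutions, topping at clinical Cmax or at 10 microM without a known Cmax.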

[1] = second compound 0.1 µM, first compound 0.0316 µM
[2] = second compound 0.1 µM, first compound 0.1 µM
[3] = second compound 0.316 µM, first compound 0.0316 µM
[4] = second compound 0.316 µM, first compound 0.1 µM
[5] = second compound 1 µM, first compound 0.0316 µM
[6] = second compound 1 µM, first compound 0.1 µM
[7] = second compound 3.16 µM, first compound 0.0316 µM
[8] = second compound 3.16 µM, first compound 0.1 µM
[9] = second compound 10 µM, first compound 0.0316 µM
[10] = second compound 10 µM, first compound 0.1 µM
[11] = second compound 0.1 µM, first compound 0.316 µM
[12] = second compound 0.1 µM, first compound 1 µM
[13] = second compound 0.1 µM, first compound 3.16 µM
[14] = second compound 0.1 µM, first compound 10 µM
[15] = second compound 0.316 µM, first compound 0.316 µM
[16] = second compound 0.316 µM, first compound 1 µM
[17] = second compound 0.316 µM, first compound 3.16 µM
[18] = second compound 0.316 µM, first compound 10 µM
[19] = second compound 1 µM, first compound 0.316 µM
[20] = second compound 1 µM, first compound 1 µM
[21] = second compound 1 µM, first compound 3.16 µM
[22] = second compound 1 µM, first compound 10 µM
[23] = second compound 3.16 µM, first compound 0.316 µM
[24] = second compound 3.16 µM, first compound 1 µM
[25] = second compound 3.16 µM, first compound 3.16 µM
[26] = second compound 3.16 µM, first compound 10 µM
[27] = second compound 10 µM, first compound 0.316 µM
[28] = second compound 10 µM, first compound 1 µM
[29] = second compound 10 µM, first compound 3.16 µM
[30] = second compound 10 µM, first compound 10 µM
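Also: spheroids exposed to compounds for seven days before readout.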

**Q.** With `CC(C)n1nc(-c2ccc3oc(N)nc3c2)c2c(N)ncnc21` + CC1OCC2(CCN(c3cnc(Sc4ccnc(N)c4Cl)c(N)n3)CC2)C1N as the compound, how does the IC50 (second compound 0.1 µM) read?
**A.** Its IC50 is 1.04 nM.

**Q.** And the IC50 (second compound 0.316 µM)?
**A.** The IC50 was 0.866 nM.

**Q.** What about the IC50 (second compound 1 µM) of the same compound?
**A.** Its IC50 is 0.926 nM.

**Q.** What about the IC50 (second compound 3.16 µM) of the same compound?
**A.** Its IC50 is 0.929 nM.

**Q.** And the IC50 (second compound 10 µM)?
**A.** The IC50 was 0.95 nM.

**Q.** What about the viability, T/C (second compound 0.1 µM, first compound 0.000316 µM) of the same compound?
**A.** Its viability, T/C is 88.6%.

**Q.** What about the viability, T/C (second compound 0.1 µM, first compound 0.001 µM) of the same compound?
**A.** Its viability, T/C is 51.3%.

**Q.** What about the viability, T/C (second compound 0.1 µM, first compound 0.00316 µM) of the same compound?
**A.** The viability, T/C was 12.7%.

**Q.** What about the viability, T/C (second compound 0.1 µM, first compound 0.01 µM) of the same compound?
**A.** Its viability, T/C is 7.28%.

**Q.** And the viability, T/C [1]?
**A.** The viability, T/C was 6.47%.

**Q.** What about the viability, T/C [2] of the same compound?
**A.** The viability, T/C was 6.12%.

**Q.** What about the viability, T/C (second compound 0.316 µM, first compound 0.000316 µM) of the same compound?
**A.** Its viability, T/C is 84.3%.

**Q.** And the viability, T/C (second compound 0.316 µM, first compound 0.001 µM)?
**A.** Its viability, T/C is 45.1%.

**Q.** And the viability, T/C (second compound 0.316 µM, first compound 0.00316 µM)?
**A.** Its viability, T/C is 13.2%.

**Q.** What about the viability, T/C (second compound 0.316 µM, first compound 0.01 µM) of the same compound?
**A.** The viability, T/C was 6.85%.

**Q.** What about the viability, T/C [3] of the same compound?
**A.** The viability, T/C was 5.49%.

**Q.** What about the viability, T/C [4] of the same compound?
**A.** Its viability, T/C is 5.49%.

**Q.** What about the viability, T/C (second compound 1 µM, first compound 0.000316 µM) of the same compound?
**A.** Its viability, T/C is 87%.

**Q.** And the viability, T/C (second compound 1 µM, first compound 0.001 µM)?
**A.** Its viability, T/C is 47.4%.

**Q.** What about the viability, T/C (second compound 1 µM, first compound 0.00316 µM) of the same compound?
**A.** The viability, T/C was 15.5%.

**Q.** What about the viability, T/C (second compound 1 µM, first compound 0.01 µM) of the same compound?
**A.** Its viability, T/C is 7.37%.

**Q.** And the viability, T/C [5]?
**A.** The viability, T/C was 5.67%.

**Q.** And the viability, T/C [6]?
**A.** The viability, T/C was 5.72%.

**Q.** What about the viability, T/C (second compound 3.16 µM, first compound 0.000316 µM) of the same compound?
**A.** The viability, T/C was 66.7%.

**Q.** And the viability, T/C (second compound 3.16 µM, first compound 0.001 µM)?
**A.** The viability, T/C was 48.9%.

**Q.** What about the viability, T/C (second compound 3.16 µM, first compound 0.00316 µM) of the same compound?
**A.** Its viability, T/C is 13.8%.

**Q.** What about the viability, T/C (second compound 3.16 µM, first compound 0.01 µM) of the same compound?
**A.** The viability, T/C was 7.85%.

**Q.** And the viability, T/C [7]?
**A.** Its viability, T/C is 6.12%.

**Q.** And the viability, T/C [8]?
**A.** Its viability, T/C is 5.21%.

**Q.** What about the viability, T/C (second compound 10 µM, first compound 0.000316 µM) of the same compound?
**A.** The viability, T/C was 64.2%.

**Q.** What about the viability, T/C (second compound 10 µM, first compound 0.001 µM) of the same compound?
**A.** The viability, T/C was 49.4%.

**Q.** What about the viability, T/C (second compound 10 µM, first compound 0.00316 µM) of the same compound?
**A.** The viability, T/C was 15%.

**Q.** And the viability, T/C (second compound 10 µM, first compound 0.01 µM)?
**A.** The viability, T/C was 7.11%.

**Q.** What about the viability, T/C [9] of the same compound?
**A.** Its viability, T/C is 5.4%.

**Q.** And the viability, T/C [10]?
**A.** The viability, T/C was 4.86%.

**Q.** Which results are given for `CC1(C)CCC(CN2CCN(c3ccc(C(=O)NS(=O)(=O)c4ccc(NCC5CCOCC5)c([N+](=O)[O-])c4)c(Oc4cnc5[nH]ccc5c4)c3)CC2)=C(c2ccc(Cl)cc2)C1` + CC1OCC2(CCN(c3cnc(Sc4ccnc(N)c4Cl)c(N)n3)CC2)C1N?
**A.** IC50 (second compound 0.1 µM): 1800 nM; IC50 (second compound 0.316 µM): 1730 nM; IC50 (second compound 1 µM): 1780 nM; IC50 (second compound 3.16 µM): 1580 nM; IC50 (second compound 10 µM): 1250 nM; viability, T/C [1]: 105%; viability, T/C [2]: 97.1%; viability, T/C [11]: 91.4%; viability, T/C [12]: 89.1%; viability, T/C [13]: 12.3%; viability, T/C [14]: 3.59%; viability, T/C [3]: 95.4%; viability, T/C [4]: 94.4%; viability, T/C [15]: 89.6%; viability, T/C [16]: 84.5%; viability, T/C [17]: 12.2%; viability, T/C [18]: 3.15%; viability, T/C [5]: 94.9%; viability, T/C [6]: 97.9%; viability, T/C [19]: 88.2%; viability, T/C [20]: 87.1%; viability, T/C [21]: 13.3%; viability, T/C [22]: 3.05%; viability, T/C [7]: 87.4%; viability, T/C [8]: 85.5%; viability, T/C [23]: 77.9%; viability, T/C [24]: 71.8%; viability, T/C [25]: 17.7%; viability, T/C [26]: 2%; viability, T/C [9]: 76%; viability, T/C [10]: 82.1%; viability, T/C [27]: 63.2%; viability, T/C [28]: 60.8%; viability, T/C [29]: 15.6%; viability, T/C [30]: 0.69%

**Q.** How did the IC50 (second compound 0.1 µM) turn out when `COc1cc2nccc(Oc3ccc(NC(=O)C4(C(=O)Nc5ccc(F)cc5)CC4)cc3)c2cc1OC` + CC1OCC2(CCN(c3cnc(Sc4ccnc(N)c4Cl)c(N)n3)CC2)C1N was run?
**A.** The IC50 was 1700 nM.

**Q.** What about the IC50 (second compound 0.316 µM) of the same compound?
**A.** The IC50 was 1670 nM.

**Q.** What about the IC50 (second compound 1 µM) of the same compound?
**A.** Its IC50 is 1530 nM.

**Q.** And the IC50 (second compound 3.16 µM)?
**A.** Its IC50 is 1430 nM.

**Q.** What about the IC50 (second compound 10 µM) of the same compound?
**A.** Its IC50 is 1350 nM.

**Q.** And the viability, T/C [1]?
**A.** Its viability, T/C is 113%.

**Q.** What about the viability, T/C [2] of the same compound?
**A.** Its viability, T/C is 104%.

**Q.** What about the viability, T/C [11] of the same compound?
**A.** The viability, T/C was 99.9%.

**Q.** What about the viability, T/C [12] of the same compound?
**A.** Its viability, T/C is 78.6%.

**Q.** What about the viability, T/C [13] of the same compound?
**A.** The viability, T/C was 12.3%.

**Q.** What about the viability, T/C [14] of the same compound?
**A.** Its viability, T/C is 21.2%.

**Q.** What about the viability, T/C [3] of the same compound?
**A.** Its viability, T/C is 108%.

**Q.** What about the viability, T/C [4] of the same compound?
**A.** The viability, T/C was 98.4%.

**Q.** And the viability, T/C [15]?
**A.** Its viability, T/C is 96.1%.

**Q.** What about the viability, T/C [16] of the same compound?
**A.** Its viability, T/C is 79.1%.

**Q.** What about the viability, T/C [17] of the same compound?
**A.** The viability, T/C was 10.4%.

**Q.** And the viability, T/C [18]?
**A.** Its viability, T/C is 17.9%.

**Q.** And the viability, T/C [5]?
**A.** The viability, T/C was 104%.

**Q.** What about the viability, T/C [6] of the same compound?
**A.** The viability, T/C was 114%.

**Q.** And the viability, T/C [19]?
**A.** Its viability, T/C is 99.5%.

**Q.** What about the viability, T/C [20] of the same compound?
**A.** The viability, T/C was 68.7%.

**Q.** What about the viability, T/C [21] of the same compound?
**A.** The viability, T/C was 14.3%.

**Q.** What about the viability, T/C [22] of the same compound?
**A.** Its viability, T/C is 22.5%.

**Q.** And the viability, T/C [7]?
**A.** The viability, T/C was 94.4%.

**Q.** And the viability, T/C [8]?
**A.** Its viability, T/C is 99.7%.

**Q.** What about the viability, T/C [23] of the same compound?
**A.** The viability, T/C was 85.6%.

**Q.** And the viability, T/C [24]?
**A.** The viability, T/C was 66.1%.

**Q.** And the viability, T/C [25]?
**A.** The viability, T/C was 13.7%.

**Q.** And the viability, T/C [26]?
**A.** The viability, T/C was 15.5%.

**Q.** What about the viability, T/C [9] of the same compound?
**A.** Its viability, T/C is 86.4%.

**Q.** What about the viability, T/C [10] of the same compound?
**A.** The viability, T/C was 80.9%.

**Q.** What about the viability, T/C [27] of the same compound?
**A.** The viability, T/C was 72.6%.

**Q.** What about the viability, T/C [28] of the same compound?
**A.** The viability, T/C was 61.5%.

**Q.** What about the viability, T/C [29] of the same compound?
**A.** The viability, T/C was 16.8%.

**Q.** And the viability, T/C [30]?
**A.** The viability, T/C was 17.3%.
